The source of these data is ChEMBL document CHEMBL5649167, “The SUV4-20 inhibitor A-196 verifies a role for epigenetics in genomic integrity” (Nat Chem Biol, 2017).

A value given as a limit tells only on which side of the number the result lay.

The target of series [1] is Histone-lysine N-methyltransferase KMT5C (Homo sapiens, UniProt Q86Y97). Kind of series: Inhibition of human SUV420H2 using Biotin-tagged H4K20me1 and [3H-SAM] as substrate incubated for 2 hrs by scintillation proximity assay. Background: SPA uses beads or plates that emit light when radiolabelled molecules are held near them.
A short description of series [2]: Inhibition of human 5-HT3 receptor expressed in HEK293T cells at 10 uM relative to control. The settings on record: HEK-293T.
In series [3] the target is T1, 5-hydroxytryptamine receptor 2A (Homo sapiens, UniProt P28223). Description: Inhibition of human 5-HT2A receptor expressed in HEK293T cells assessed as inhibition constant. The series is classed as cell-based.
In series [4] the target is T2, Adenosine receptor A3 (Homo sapiens, UniProt P0DMS8).
T2 sequence (P0DMS8 whole entry): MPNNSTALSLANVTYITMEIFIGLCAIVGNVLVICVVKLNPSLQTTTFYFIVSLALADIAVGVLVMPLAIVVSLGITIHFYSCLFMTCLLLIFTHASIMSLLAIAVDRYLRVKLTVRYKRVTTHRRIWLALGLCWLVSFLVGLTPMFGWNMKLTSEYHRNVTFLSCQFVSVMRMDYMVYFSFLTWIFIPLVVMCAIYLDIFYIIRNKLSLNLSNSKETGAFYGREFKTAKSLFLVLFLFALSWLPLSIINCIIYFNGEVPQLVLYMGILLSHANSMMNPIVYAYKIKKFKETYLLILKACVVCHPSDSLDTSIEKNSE
Description: Inhibition of human Adenosine receptor A3 assessed as inhibition constant.

Series [5] can be described thus: Inhibition of Rat GABAA assessed as inhibition constant in the presence of PBR.
For series [6], the target named is T1, 5-hydroxytryptamine receptor 2A. Kind of series: Inhibition of human 5-HT2A assessed as inhibition constant.
In series [7] the target is Histone-lysine N-methyltransferase KMT5B (Homo sapiens, UniProt Q4FZB7). Kind of series: Inhibition of recombinant human 6His-(Tev)-G-SUV420H1 (69 to 335 residues) using Biotin-tagged H4K20me1 and [3H-SAM] as substrate incubated for 2 hrs by scintillation proximity assay.
The test system of series [8] is B-cell. Kind of series: Induction of DNA repair in mouse B cells assessed as change in ability of splenic cells to switch from IgM to IgG1 at 10 uM incubated for 2 days in the presence of LPS by flow cytometry analysis (Rvb=9.59%). The series is classed as functional. The settings on record: time 2 day. A general note: Flow cytometry measures light scatter and fluorescence of single cells or particles in a stream.

Series [9] concerns the target Sodium-dependent serotonin transporter (Homo sapiens, UniProt P31645). Description: Inhibition of human 5-HT transporter assessed as inhibition constant.
For series [10], the target named is T3, Adenosine receptor A1 (Homo sapiens, UniProt P30542).
T3 sequence (P30542 whole entry): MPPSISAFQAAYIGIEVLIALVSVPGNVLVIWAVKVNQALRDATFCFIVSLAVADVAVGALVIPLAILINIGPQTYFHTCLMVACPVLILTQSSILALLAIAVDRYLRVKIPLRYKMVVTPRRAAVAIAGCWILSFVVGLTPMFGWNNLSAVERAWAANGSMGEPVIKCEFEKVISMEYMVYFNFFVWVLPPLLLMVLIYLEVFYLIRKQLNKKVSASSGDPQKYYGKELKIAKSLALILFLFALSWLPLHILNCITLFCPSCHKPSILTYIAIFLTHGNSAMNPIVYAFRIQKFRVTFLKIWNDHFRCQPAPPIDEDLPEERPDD
Description: Inhibition of human Adenosine receptor A1 assessed as inhibition constant.

The target of series [11] is Kappa-type opioid receptor (Homo sapiens, UniProt P41145). Description: Inhibition of human kappa opioid receptor expressed in stable HEK cells assessed as inhibition constant. The series is classed as cell-based.
Series [12] has as its system B-cell. Description: Induction of DNA repair in mouse B cells assessed as change in ability of splenic cells to switch from IgM to IgE at 1 uM incubated for 3 days in the presence of LPS plus IL-4 by flow cytometry analysis (Rvb=1.97%). The series is classed as functional. The settings on record: time 3 day.
For series [13], the target named is T4, 5-hydroxytryptamine receptor 1A (Homo sapiens, UniProt P08908).
T4 sequence (P08908 whole entry): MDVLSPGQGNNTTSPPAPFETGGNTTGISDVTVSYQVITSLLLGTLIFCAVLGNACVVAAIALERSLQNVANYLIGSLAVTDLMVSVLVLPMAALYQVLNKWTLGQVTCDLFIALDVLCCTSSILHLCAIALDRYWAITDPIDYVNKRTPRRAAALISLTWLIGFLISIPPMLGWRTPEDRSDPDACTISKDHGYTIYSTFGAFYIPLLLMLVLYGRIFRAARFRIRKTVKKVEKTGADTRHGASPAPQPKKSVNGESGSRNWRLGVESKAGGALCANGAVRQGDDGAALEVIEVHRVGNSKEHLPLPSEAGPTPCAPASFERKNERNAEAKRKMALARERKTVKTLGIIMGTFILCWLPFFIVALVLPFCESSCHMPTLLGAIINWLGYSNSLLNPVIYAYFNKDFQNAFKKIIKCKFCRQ
Description: Inhibition of human 5-HT1A assessed as inhibition constant.

Series [14] deals with B-cell. Kind of series: Induction of DNA repair in mouse B cells assessed as change in ability of splenic cells to switch from IgM to IgG3 at 10 uM incubated for 4 days in the presence of LPS by flow cytometry analysis (Rvb=5.71%). The series is classed as functional. The settings on record: time 4 day.
Series [15] deals with B-cell. Description: Induction of DNA repair in mouse B cells assessed as change in ability of splenic cells to switch from IgM to IgG1 incubated for 2 days at 1 uM in the presence of LPS by flow cytometry analysis (Rvb=9.59%). The series is classed as functional. The settings on record: time 2 day.
In series [16] the test system is B-cell. Kind of series: Induction of DNA repair in mouse B cells assessed as change in ability of splenic cells to switch from IgM to IgG3 at 1 uM incubated for 4 days in the presence of LPS by flow cytometry analysis (Rvb=5.71%). It counts as functional. The settings on record: time 4 day.
In series [17] the target is KV channel (voltage-gated potassium channel) (Homo sapiens, UniProt O43525+O43526+O95259+P16389+P17658+P22001+P22459+P22460+P48547+P51787+P56696+Q03721+Q09470+Q12809+Q14003+Q14721+Q16322+Q6PIU1+Q8NCM2+Q8TAE7+Q8TDN1+Q8TDN2+Q92953+Q96KK3+Q96L42+Q96PR1+Q96RP8+Q9BQ31+Q9H252+Q9H3M0+Q9NR82+Q9NS40+Q9NSA2+Q9NZV8+Q9UIX4+Q9UJ96+Q9UK17+Q9ULD8+Q9ULS6+Q9UQ05). Description: Inhibition of human KV channel at 10 uM relative to control. It counts as protein assay.

The subject of series [18] is B-cell. Description: Induction of DNA repair in mouse B cells assessed as change in ability of splenic cells to switch from IgM to IgE at 10 uM incubated for 3 days in the presence of LPS plus IL-4 by flow cytometry analysis (Rvb=1.97%). It counts as functional. The settings on record: time 3 day.
The target of series [19] is L-type calcium channel (verapamil binding site) (Homo sapiens, UniProt O60840+Q01668+Q13698+Q13936). Description: Inhibition of human L-type calcium channel verapamil binding site at 10 uM relative to control. The series is classed as protein assay.
Series [20] deals with Adenosine receptor A2a (Homo sapiens, UniProt P29274). Description: Inhibition of human Adenosine receptor A2a assessed as inhibition constant.
Adenosine receptor A2a, sequence (P29274 whole entry): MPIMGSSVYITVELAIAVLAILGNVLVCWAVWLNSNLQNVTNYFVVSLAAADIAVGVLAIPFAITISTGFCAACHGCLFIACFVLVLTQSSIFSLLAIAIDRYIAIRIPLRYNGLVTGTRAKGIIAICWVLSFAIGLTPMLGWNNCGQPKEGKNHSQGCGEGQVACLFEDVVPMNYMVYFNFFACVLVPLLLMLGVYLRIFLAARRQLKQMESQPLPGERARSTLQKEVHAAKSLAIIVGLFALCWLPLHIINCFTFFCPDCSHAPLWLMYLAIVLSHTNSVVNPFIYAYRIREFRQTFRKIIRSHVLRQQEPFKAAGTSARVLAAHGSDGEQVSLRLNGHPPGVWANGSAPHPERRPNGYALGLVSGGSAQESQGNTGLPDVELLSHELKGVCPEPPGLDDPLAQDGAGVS

T1 sequence (P28223 whole entry): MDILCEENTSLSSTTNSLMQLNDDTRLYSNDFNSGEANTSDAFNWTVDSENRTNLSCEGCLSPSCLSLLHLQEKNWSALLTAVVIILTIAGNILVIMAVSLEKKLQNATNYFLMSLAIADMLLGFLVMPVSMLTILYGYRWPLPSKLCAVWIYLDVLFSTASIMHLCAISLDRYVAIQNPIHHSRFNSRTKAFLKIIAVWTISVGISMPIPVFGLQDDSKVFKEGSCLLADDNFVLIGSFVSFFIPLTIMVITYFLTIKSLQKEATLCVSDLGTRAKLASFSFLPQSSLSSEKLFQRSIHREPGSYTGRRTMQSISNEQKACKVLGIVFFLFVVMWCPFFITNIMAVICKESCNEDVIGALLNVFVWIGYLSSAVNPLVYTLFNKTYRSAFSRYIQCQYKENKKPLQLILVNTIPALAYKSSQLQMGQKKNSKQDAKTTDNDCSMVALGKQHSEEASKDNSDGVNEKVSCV
Sodium-dependent serotonin transporter, sequence (P31645 whole entry): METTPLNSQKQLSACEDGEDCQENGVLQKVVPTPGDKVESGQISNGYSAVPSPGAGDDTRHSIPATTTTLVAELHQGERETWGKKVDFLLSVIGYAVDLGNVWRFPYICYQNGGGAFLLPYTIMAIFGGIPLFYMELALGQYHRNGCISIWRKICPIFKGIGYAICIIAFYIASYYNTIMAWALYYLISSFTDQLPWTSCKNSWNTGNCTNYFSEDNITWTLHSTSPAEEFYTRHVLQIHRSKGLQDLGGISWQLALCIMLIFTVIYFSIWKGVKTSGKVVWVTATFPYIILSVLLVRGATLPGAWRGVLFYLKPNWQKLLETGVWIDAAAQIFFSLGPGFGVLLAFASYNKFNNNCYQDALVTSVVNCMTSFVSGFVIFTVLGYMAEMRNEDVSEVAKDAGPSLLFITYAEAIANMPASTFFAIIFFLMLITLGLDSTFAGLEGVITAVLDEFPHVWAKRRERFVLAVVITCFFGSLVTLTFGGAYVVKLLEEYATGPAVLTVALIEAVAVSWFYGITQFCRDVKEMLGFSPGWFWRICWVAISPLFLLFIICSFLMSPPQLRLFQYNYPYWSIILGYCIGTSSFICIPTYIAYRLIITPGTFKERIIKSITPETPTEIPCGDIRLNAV
Histone-lysine N-methyltransferase KMT5C, sequence (Q86Y97 whole entry): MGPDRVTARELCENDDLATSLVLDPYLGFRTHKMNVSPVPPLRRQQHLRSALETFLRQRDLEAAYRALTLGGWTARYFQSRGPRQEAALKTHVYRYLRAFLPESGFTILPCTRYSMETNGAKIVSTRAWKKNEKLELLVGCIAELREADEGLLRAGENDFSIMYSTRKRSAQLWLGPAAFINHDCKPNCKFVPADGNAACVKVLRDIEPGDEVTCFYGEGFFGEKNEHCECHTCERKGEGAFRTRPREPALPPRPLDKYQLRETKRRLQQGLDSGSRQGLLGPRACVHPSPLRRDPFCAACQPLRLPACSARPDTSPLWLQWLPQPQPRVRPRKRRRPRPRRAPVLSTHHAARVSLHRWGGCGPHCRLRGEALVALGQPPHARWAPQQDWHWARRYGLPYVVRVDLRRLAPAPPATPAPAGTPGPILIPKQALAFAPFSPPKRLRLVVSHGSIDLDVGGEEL
Kappa-type opioid receptor, sequence (P41145 whole entry): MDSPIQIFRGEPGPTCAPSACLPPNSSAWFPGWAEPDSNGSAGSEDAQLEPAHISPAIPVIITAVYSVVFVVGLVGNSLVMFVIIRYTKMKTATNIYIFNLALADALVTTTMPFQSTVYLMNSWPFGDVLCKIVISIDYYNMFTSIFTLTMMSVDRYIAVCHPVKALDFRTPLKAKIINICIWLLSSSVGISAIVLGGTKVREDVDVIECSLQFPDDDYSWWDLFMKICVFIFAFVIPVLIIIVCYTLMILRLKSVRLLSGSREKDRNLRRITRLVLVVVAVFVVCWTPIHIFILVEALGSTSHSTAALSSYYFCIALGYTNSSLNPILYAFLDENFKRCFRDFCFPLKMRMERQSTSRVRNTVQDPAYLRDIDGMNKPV
Histone-lysine N-methyltransferase KMT5B, sequence (Q4FZB7 whole entry, the tested form may be a part): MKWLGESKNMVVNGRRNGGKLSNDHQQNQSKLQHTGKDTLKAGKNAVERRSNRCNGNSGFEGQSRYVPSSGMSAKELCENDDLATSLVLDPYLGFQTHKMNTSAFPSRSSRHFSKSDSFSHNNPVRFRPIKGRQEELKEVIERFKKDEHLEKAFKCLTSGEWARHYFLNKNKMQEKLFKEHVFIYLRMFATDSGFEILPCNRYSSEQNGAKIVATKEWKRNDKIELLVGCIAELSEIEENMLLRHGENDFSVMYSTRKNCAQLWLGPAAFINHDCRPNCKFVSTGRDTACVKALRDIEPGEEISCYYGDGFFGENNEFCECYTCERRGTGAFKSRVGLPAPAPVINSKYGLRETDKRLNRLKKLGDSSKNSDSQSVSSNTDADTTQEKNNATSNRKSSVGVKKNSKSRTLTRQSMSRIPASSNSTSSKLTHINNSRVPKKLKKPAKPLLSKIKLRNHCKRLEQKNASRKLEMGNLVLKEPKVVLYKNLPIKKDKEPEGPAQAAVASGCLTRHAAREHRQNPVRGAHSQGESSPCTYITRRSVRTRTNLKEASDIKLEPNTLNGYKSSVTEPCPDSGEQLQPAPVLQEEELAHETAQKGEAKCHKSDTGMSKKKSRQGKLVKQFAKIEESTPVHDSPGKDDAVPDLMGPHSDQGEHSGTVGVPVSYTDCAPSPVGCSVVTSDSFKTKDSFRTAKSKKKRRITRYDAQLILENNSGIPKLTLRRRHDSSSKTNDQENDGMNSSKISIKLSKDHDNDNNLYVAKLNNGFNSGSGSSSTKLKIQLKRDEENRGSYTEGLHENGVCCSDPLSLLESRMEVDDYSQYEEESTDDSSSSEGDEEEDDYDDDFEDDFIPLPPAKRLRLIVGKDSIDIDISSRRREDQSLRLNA

Take `O=C(c1nnc(NC2CCCC2)c2cc(Cl)c(Cl)cc12)N1CCC(O)CC1`: the IC50 in series [1] and in series [7] was more than 10 µM in each case. Also, the inhibition (in general, the drop in the measured response relative to a control, in per cent) at 10 µM in series [2] was -5%; in series [17], -5%; in series [19], 4%. The inhibition constant (Ki) (commonly the dissociation constant of the complex between target and ligand, obtained from inhibition or displacement) in [3] was more than 10 µM; in series [4] it was 13 µM; in [5], 1.1 µM; in series [6], 13 µM; in series [9], 3.9 µM; in series [10], 3.1 µM. For the same molecule, the Ki in series [11] was 2.7 µM; in [13], more than 10 µM; in [20] it was 20 µM. For the same molecule, the Activity is 10.6% in series [8]; 2.45% in series [12]; 5.11% in [14]; 10.7% in series [15]; 5.55% in series [16]; 1.94% in series [18].
